Experimental data as given in patent US4104390A, “Thieno [2,3-c] and [3,2-c] pyridines” (Parcor, priority 1976, dated 1978).
Read-outs that look alike come from different tables or passages of the source.

How the values were obtained:
[1] = system: ovalbumen-induced systemic edema; experiment: Ovalbumen-induced systemic edema method; type: in vivo; settings: Rattus norvegicus, po, rats, 100 mg/kg orally 1 hour before and with ovalbumen
Description: (b) Ovalbumen-induced systemic edema method
Simultaneous injection of 1 ml ovalbumen and 0.5 ml of a 1% aqueous Evans Blue solution is effected in rats. On the other hand, the animals of the treated group are administered orally 100 mg/kg of the test derivative one hour prior to ovalbumen administration and simultaneously with said administration. The intensity of the phenomenon thus induced is scored according to a scale from 1 to 5 depending on the progress of the inflammatory syndrome. The mean intensity of the edem and the percent decrease of the edema reaction with respect to the control group are thus determined as a function of time.

[2] = system: collagen-induced blood-platelet aggregation; experiment: Collagen-induced blood-platelet aggregation; type: in vivo, Wistar rats; settings: Rattus norvegicus, po; rats, 100 mg/kg orally, 3 hours after treatment, collagen (bovine tendon extract), with respect to control group; read-out: Percent inhibition of blood-platelet aggregation, Collagen
Description: (§1) Blood is taken from the jugular vein of Wistar rats. From this citrated blood, and after centrifugation, is reconstituted a plasma containing 600,000 ± 20,000 blood-platelets per ml which is used in all aggregation determinations.
(§2) 0.4 ml plasma is placed in a siliconized tube provided with a magnet bar, also siliconized. The tube is introduced into an aggregometer coupled with an apparatus for recording optical density variations. When light transmission has reached a stable value, 0.5 ml of a solution containing 10 μM A.D.P. (Adenosine-Di-Phosphate) is introduced into the tube.
(§3) Blood-platelet aggregation causes an increase of light transmission followed by a decrease subsequent to the deaggregation phase.
(§4) The maximal optical density variation thus determined characterizes the intensity of the aggregation.
The A.D.P. solution is substituted with a collagen solution (bovine tendon extract).
(§5) Different groups of 20 rats are used, each group being orally administered a test derivative at a dosage of 100 mg/kg.

[3] = system: carrageenin-induced localized edema; experiment: Carrageenin-induced localized edema method; type: in vivo; settings: Rattus norvegicus, po, rats, 100 mg/kg orally at -1, 0, 1 and 2.5 hours
Description: (a) Carrageenin-induced localized edema method
0.1 ml of a 1% carrageenin solution is injected in the metatarsal flexor muscles of the right hind limb of rats at time 0. The animals of the treated group are additionally orally administered 100 mg/kg of the test derivative, respectively one hour prior to injection of the phlogogenic agent, simultaneously with said injection, and then 1 hour and 2.5 hours thereafter. The determinations effected by means of a ROCH micrometer at times 0, 1 hour, 2 hours, 3 hours and 5 hours after carrageenin administration make it possible to determine, as a function of time, the percent anti-inflammatory activity with respect to the reference group.

[4] = system: A.D.P.-induced blood-platelet aggregation; experiment: A.D.P.-induced blood-platelet aggregation; type: in vivo, Wistar rats; settings: Rattus norvegicus, po; rats, 100 mg/kg orally, 3 hours after treatment, 10 μM A.D.P. solution, with respect to control group; read-out: Percent inhibition of blood-platelet aggregation, A.D.P.
Description: as §1, §2, §3, §4, §5

[5] = 2 hours after ovalbumen, read-out: Percent anti-inflammatory activity after 2 hours
[6] = 3 hours after ovalbumen, read-out: Percent anti-inflammatory activity after 3 hours
[7] = 1 hour after carrageenin, read-out: Percent anti-inflammatory activity after 1 hour
[8] = 2 hours after carrageenin, read-out: Percent anti-inflammatory activity after 2 hours
[9] = 3 hours after carrageenin, read-out: Percent anti-inflammatory activity after 3 hours
[10] = 5 hours after carrageenin, read-out: Percent anti-inflammatory activity after 5 hours

| Compound | inhibition in vivo at 100 mg/kg [1, 5] [%] | inhibition in vivo at 100 mg/kg [1, 6] [%] | inhibition at 100 mg/kg [2] [%] | inhibition in vivo at 100 mg/kg [3, 7] [%] | inhibition in vivo at 100 mg/kg [3, 8] [%] | inhibition in vivo at 100 mg/kg [3, 9] [%] | inhibition in vivo at 100 mg/kg [3, 10] [%] | inhibition at 100 mg/kg [4] [%] |
| --- | --- | --- | --- | --- | --- | --- | --- | --- |
| CC1C(c2ccccc2)c2sccc2CN1Cc1ccc([N+](=O)[O-])cc1 (centres unmarked) [derivative n°22, 6-Methyl-5-p.nitrobenzyl-7-phenyl-4,5,6,7-tetrahydro-thieno[3,2-c]pyridine] | 50 | 57 | 94.6 | 41 | 49 | 53 | 56 | 63.4 |
| CC1C(c2ccccc2)c2sccc2CN1Cc1ccccc1Cl (centres unmarked) [derivative n°23, 5-o.Chlorobenzyl-6-methyl-7-phenyl-4,5,6,7-tetrahydro-thieno[3,2-c]pyridine] | 47 | 54 | 94.5 | 39 | 44 | 48 | 52 | 64.8 |
| c1ccc(CN2Cc3ccsc3C(c3ccccc3)C2)cc1 (centres unmarked) [derivative n°24, 5-Benzyl-7-phenyl-4,5,6,7-tetrahydro-thieno[3,2-c]pyridine] | 42 | 47 | 93 | 41 | 47 | 50 | 53 | 62.6 |
| c1ccc(CCN2Cc3sccc3C(c3ccccc3)C2)cc1 (centres unmarked) [derivative n°25, 6-Phenethyl-4-phenyl-4,5,6,7-tetrahydro-thieno[2,3-c]pyridine] | 44 | 51 | 93.8 | 47 | 52 | 56 | 60 | 64.1 |
| N#Cc1ccccc1CN1Cc2ccsc2C(c2ccccc2)C1 (centres unmarked) [derivative n°26] | 48 | 54 | 90.2 | 44 | 49 | 52 | 56 | 60.9 |
| COc1ccc(CN2Cc3ccsc3C(c3ccccc3)C2)cc1 (centres unmarked) [derivative n°27, 5-p.Methoxybenzyl-7-phenyl-4,5,6,7-tetrahydro-thieno[3,2-c]pyridine] | 51 | 56 | 92.4 | 38 | 45 | 49 | 52 | 63 |
| COC(=O)c1ccccc1CN1Cc2ccsc2C(c2ccccc2)C1 (centres unmarked) [derivative n°28, 5-o.Methoxycarbonylbenzyl-7-phenyl-4,5,6,7-tetrahydro-thieno[3,2-c]pyridine] | 45 | 52 | 92.2 | 41 | 47 | 51 | 53 | 62.3 |
